# Columns and labels:
# Assay type in all cases: cell-based
# SK-MEL-2 = assay: NCI-60 DTP Human Tumor Cell Line Screen; settings: SK-MEL-2, Melanoma, 48 h
# PC-3 = assay: NCI-60 DTP Human Tumor Cell Line Screen; settings: PC-3, Prostate Cancer, 48 h
# UACC-62 = assay: NCI-60 DTP Human Tumor Cell Line Screen; settings: UACC-62, Melanoma, 48 h
# SNB-19 = assay: NCI-60 DTP Human Tumor Cell Line Screen; settings: SNB-19, CNS Cancer, 48 h
# HUVEC = assay: Sprouting assay on dextran beads (anti-angiogenic activity)
# Procedure: This assay is an unpublished variation of the assay described (Microvascular Research 2003, 66, 102-112) performed by the Hans Hammers Lab at Johns Hopkins University. The assay described in the above reference is described below.
# HUVEC were mixed with dextran-coated Cytodex 3 microcarriers (Amersham Pharmacia Biotech, Piscataway, N.J.) at a concentration of 400 HUVEC per bead in 1 ml of EGM-2 medium (Clonetics, Walkersville, Md.). Beads with cells were shaken gently every 20 min for 4 h at 37° C. and 5% CO2. After incubating, beads with cells were transferred to a 25-cm^2 tissue culture flask (BD Biosciences, Bedford, Mass.) and left for 12-16 h in 5 ml of EGM-2 at 37° C. and 5% CO2. The following day, beads with cells were washed three times with 1 ml of EGM-2 and resuspended at a concentration of 200 cell-coated beads/ml in 2.5 mg/ml of fibrinogen (Sigma, St. Louis, Mo.) with or without 0.15 units/ml of aprotinin (Sigma) at a pH of 7.4. Five hundred microliters of fibrinogen/bead solution was added to 0.625 units of thrombin (Sigma) in one well of a 24-well tissue culture plate. […] Bead assays were monitored for 7 days. […]
# A549 NSCLC cells = assay: Effect of drug treatment time (MTS, drug removed); settings: A549, 24 or 2 h exposure, viability measured after 48 h
# Procedure: Cell proliferation was determined using the CellTiter 96 Aqueous One Solution Cell Proliferation Assay MTS assay. A549 NSCLC cells were plated at 1.5×10^3 cells per well in flat bottom 96 well plates in 99 μL of media and allowed to adhere overnight. The drugs were serially diluted in 100% DMSO. For each drug treatment group, 1 μL of a 100× stock solution was added to each well for a final DMSO concentration of 1%. Cells were treated for 2, 24, or 48 under normoxic or hypoxic (1-3% oxygen) conditions. Following 2 or 24 h, media containing drug was removed, the cells were washed 1× with fresh media, and 100 μL fresh media was added to each well. Cells were then allowed to grow for an additional 46 or 24 h in drug free media. After 48 h, cells were incubated with MTS dye (20 μL well^−1) for 40 min to 2 h. Absorbance at 490 nm was determined using a SpectraMax M2 (Molecular Devices) plate reader. The percent cell proliferation was calculated by converting the experimental absorbance to percentage of control, which was then plotted vs. drug concentration. The IC50 values were determined using a non-linear dose-response analysis in GraphPad Prism version 4.0.
# A549 cells were treated with prodrug 14 for 24 or 2 h. Prodrug was removed and cell viability measured after 48 h using a standard MTS assay. Longer exposure to […] results in lower […].
# CAKI-1 = assay: NCI-60 DTP Human Tumor Cell Line Screen; settings: CAKI-1, Renal Cancer, 48 h
# OPVCAR-5 = assay: NCI-60 DTP Human Tumor Cell Line Screen; settings: OPVCAR-5, Ovarian Cancer, 48 h
# KM12 = assay: NCI-60 DTP Human Tumor Cell Line Screen; settings: KM12, Colon Cancer, 48 h
# SF-268 = assay: NCI-60 DTP Human Tumor Cell Line Screen; settings: SF-268, CNS Cancer, 48 h
# SK-OV-3 = assay: NCI-60 DTP Human Tumor Cell Line Screen; settings: SK-OV-3, Ovarian Cancer, 48 h
# MDA-MB-435 = assay: NCI-60 DTP Human Tumor Cell Line Screen; settings: MDA-MB-435, Melanoma, 48 h
# EKVX = assay: NCI-60 DTP Human Tumor Cell Line Screen; settings: Non-Small Cell Lung Cancer, 48 h
# UACC-257 = assay: NCI-60 DTP Human Tumor Cell Line Screen; settings: UACC-257, Melanoma, 48 h
# HT29 = assay: NCI-60 DTP Human Tumor Cell Line Screen; settings: HT29, Colon Cancer, 48 h
# SF-295 = assay: NCI-60 DTP Human Tumor Cell Line Screen; settings: SF-295, CNS Cancer, 48 h
# SW-620 = assay: NCI-60 DTP Human Tumor Cell Line Screen; settings: SW-620, Colon Cancer, 48 h
structure (smiles),measurement,setting,value
CN(CCCCCl)P(=O)(OCc1ccc([N+](=O)[O-])cc1)C(Cl)(Cl)P(=O)(OCc1ccc([N+](=O)[O-])cc1)N(C)CCCCCl (stereo not drawn) [compound 14],Log10GI50,SK-MEL-2,−5.60
same,Log10LC50,SK-MEL-2,>−4.00
same,Log10TGI,SK-MEL-2,−5.18
same,Log10GI50,PC-3,−5.44
same,Log10LC50,PC-3,>−4.00
same,Log10TGI,PC-3,>−4.00
same,Log10GI50,UACC-62,−5.70
same,Log10LC50,UACC-62,−4.11
same,Log10TGI,UACC-62,−5.30
same,Log10GI50,SNB-19,−5.30
same,Log10LC50,SNB-19,>−4.00
same,Log10TGI,SNB-19,>−4.00
same,sprouting,HUVEC; 6 μM,sprouting was delayed for the first few days
same,sprouting,HUVEC; 10 μM,sprouting is inhibited
same,growth inhibition over shorter drug treatment times,A549 NSCLC cells,more potent growth inhibition than zoledronate
same,Log10GI50,CAKI-1,−5.54
same,Log10LC50,CAKI-1,>−4.00
same,Log10TGI,CAKI-1,>−4.00
same,Log10GI50,OPVCAR-5,−5.45
same,Log10LC50,OPVCAR-5,>−4.00
same,Log10TGI,OPVCAR-5,>−4.00
same,Log10GI50,KM12,−5.46
same,Log10LC50,KM12,>−4.00
same,Log10TGI,KM12,>−4.00
same,Log10GI50,SF-268,−5.55
same,Log10LC50,SF-268,>−4.00
same,Log10TGI,SF-268,>−4.00
same,Log10GI50,SK-OV-3,−5.19
same,Log10LC50,SK-OV-3,>−4.00
same,Log10TGI,SK-OV-3,>−4.00
same,Log10GI50,MDA-MB-435,−5.55
same,Log10LC50,MDA-MB-435,>−4.00
same,Log10TGI,MDA-MB-435,−4.65
same,Log10GI50,EKVX,−5.50
same,Log10LC50,EKVX,>−4.00
same,Log10TGI,EKVX,>−4.00
same,Log10GI50,UACC-257,−5.56
same,Log10LC50,UACC-257,>−4.00
same,Log10TGI,UACC-257,−5.10
same,Log10GI50,HT29,−5.48
same,Log10LC50,HT29,>−4.00
same,Log10TGI,HT29,−4.65
same,Log10GI50,SF-295,−5.61
same,Log10LC50,SF-295,>−4.00
same,Log10TGI,SF-295,−4.77
same,Log10GI50,SW-620,−5.27
same,Log10LC50,SW-620,>−4.00
same,Log10TGI,SW-620,>−4.00

# Source: patent publication US8772268B2, “Bisphosphonamidate prodrugs and uses thereof” (The Johns Hopkins University, priority 2010, dated 2014)
